# Data from paper PMC4368485 (Neuron, 2015).
# Experiments:
# latency to fall = assay: Rotorod test; type: in vivo, mouse; settings: mice, vehicle 140±13 sec
# [1] = tested on: horizontal locomotor activity; assay: Locomotor activity; type: in vivo, rat; settings: at high doses IP; rats; cumulative 2 hr
# [2] = estimated from the literature ref Yang et al., 2003, Nicholson et al., 2007; cited from earlier work
# [3] = target: rat GluN1-1a/GluN2B receptors (Rattus norvegicus, UniProt P35439+Q00960); settings: Table S6 ref Mott et al., 1998; cited from earlier work
# rat GluN1-1a/GluN2B receptors, sequence (Q00960 27-1482, other chains not shown): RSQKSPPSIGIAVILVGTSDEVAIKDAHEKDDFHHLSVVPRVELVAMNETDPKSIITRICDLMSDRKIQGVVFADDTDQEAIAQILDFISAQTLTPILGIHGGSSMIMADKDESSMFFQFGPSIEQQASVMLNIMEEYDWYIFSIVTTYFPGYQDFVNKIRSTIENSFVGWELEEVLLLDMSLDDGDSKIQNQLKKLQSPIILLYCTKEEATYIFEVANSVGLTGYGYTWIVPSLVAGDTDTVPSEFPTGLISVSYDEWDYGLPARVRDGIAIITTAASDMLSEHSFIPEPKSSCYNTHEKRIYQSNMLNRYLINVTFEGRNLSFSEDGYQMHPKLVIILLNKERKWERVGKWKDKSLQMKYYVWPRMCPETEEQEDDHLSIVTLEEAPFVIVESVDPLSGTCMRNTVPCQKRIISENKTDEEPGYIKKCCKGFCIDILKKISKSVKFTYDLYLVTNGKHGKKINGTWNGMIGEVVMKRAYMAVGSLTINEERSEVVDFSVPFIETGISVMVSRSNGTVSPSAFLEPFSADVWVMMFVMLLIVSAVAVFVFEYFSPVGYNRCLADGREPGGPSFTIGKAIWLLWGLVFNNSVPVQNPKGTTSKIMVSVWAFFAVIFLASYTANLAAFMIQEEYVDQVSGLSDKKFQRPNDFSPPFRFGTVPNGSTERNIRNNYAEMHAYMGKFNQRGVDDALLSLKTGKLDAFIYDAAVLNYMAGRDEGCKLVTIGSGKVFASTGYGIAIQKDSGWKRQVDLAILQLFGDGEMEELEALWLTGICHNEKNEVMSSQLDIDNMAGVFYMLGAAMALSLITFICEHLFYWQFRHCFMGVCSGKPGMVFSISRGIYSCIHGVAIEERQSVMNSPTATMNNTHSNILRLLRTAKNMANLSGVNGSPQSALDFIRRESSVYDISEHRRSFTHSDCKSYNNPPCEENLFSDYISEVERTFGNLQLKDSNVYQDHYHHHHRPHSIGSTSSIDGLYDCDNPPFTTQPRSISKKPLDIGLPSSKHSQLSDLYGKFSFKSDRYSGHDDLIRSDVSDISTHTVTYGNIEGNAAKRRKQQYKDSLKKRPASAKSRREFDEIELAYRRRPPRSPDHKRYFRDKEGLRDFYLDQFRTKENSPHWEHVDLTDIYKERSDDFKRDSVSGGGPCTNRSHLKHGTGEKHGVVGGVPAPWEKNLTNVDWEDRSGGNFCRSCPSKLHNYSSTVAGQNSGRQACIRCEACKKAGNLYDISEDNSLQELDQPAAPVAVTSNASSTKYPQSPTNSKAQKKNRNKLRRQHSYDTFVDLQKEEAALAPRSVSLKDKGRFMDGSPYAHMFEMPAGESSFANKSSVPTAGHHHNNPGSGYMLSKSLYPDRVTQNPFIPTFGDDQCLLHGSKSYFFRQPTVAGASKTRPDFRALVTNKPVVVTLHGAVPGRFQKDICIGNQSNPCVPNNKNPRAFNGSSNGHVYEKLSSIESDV
molecule,measurement,setting,value
CC(C(O)c1ccc(O)cc1)N1CCC(Cc2ccccc2)CC1 (centres unmarked) [ifenprodil],rotorod latency to fall,latency to fall; 30 mg/kg IP,35 ± 6 s
same,effect on locomotor activity,[1],reduced
(+)MK-801,rotorod latency to fall,latency to fall; 0.6 mg/kg IP,3 ± 2 s
"C[C@@H]([C@@H](O)c1ccc(O)cc1)N1CCC(O)(c2ccccc2)CC1 [CP-101,606]",therapeutic ratio (TR) for neuroprotection,[2],~ 4
same,pH sensitivity of inhibition,[3],lack substantial pH sensitivity
